Consider three compounds from patent US20250000924A1, “Composition for the prevention, improvement or treatment of allergic disease comprising an extract of Taxus cuspidata as an active ingredient” (KOREA INSTITUTE OF SCIENCE AND TECHNOLOGY, priority 2023, published 2025).

The structures appear in SMILES notation.

In the assay the test system is mast cells. The experiment in a line: Anti-allergic effect of active ingredients derived from Taxus cuspidata extract (degranulation, PGE2, TNF-α, IL-4 overall). The settings on record: overall statement on FIGS. 13 to 16; compounds at 20 μM. It counts as cell-based, rat. The procedure: Mast cells were cultured in the same manner as in Example 2 above, and then treated with the nine compounds isolated in Example 11 above at a concentration of 20 μM, respectively.
Mast cells were cultured in the same manner as in Example 3 above, and then treated with the nine compounds isolated in Example 11 above at a concentration of 20 μM, respectively.
• treated with the 9 compounds isolated in Example 11 at a concentration of 20 μM, respectively.
Mast cells were cultured in the same manner as in Example 5 above, and then treated with the nine compounds isolated in Example 11 above at a concentration of 20 μM, respectively.
`COc1cc(O)cc(OC)c1` [Taxicatigenin]: the anti-allergy effects result is on record as “excellent”. On to `O=Cc1ccc(O)cc1` [4-hydroxyl benzandehyde], for which the anti-allergy effects result is “excellent”. As to `OCCCc1ccc(O)cc1` [3-(4-Hydroxyphenyl)-1-propanol], the anti-allergy effects entry is listed as “excellent”.
